Laboratory results as given in the supplement of paper PMC10307832.

Columns and labels:
Test in all cases: relative viability (nuclei count vs DMSO), 5 days (fraction); higher = more cells survive
TGX 221 + Crizotinib = compound: CC1=CN2C(=O)C=C(N=C2C(=C1)C(C)NC3=CC=CC=C3)N4CCOCC4 [TGX 221] + C[C@@H](Oc1cc(-c2cnn(C3CCNCC3)c2)cnc1N)c1c(Cl)ccc(F)c1Cl [Crizotinib] (partner 1 µM)
Outline: (§1)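 Lung cancer cell lines in 1536-well plates were dosed by pin tool the day after seeding, either with one drug alone or with a fixed anchor-drug dose plus five library-drug doses (not always all listed) in √10 steps. After 5 days, cells were fixed and their nuclei stained in one step (final 0.05% Triton X-100, 1% formaldehyde, 1 ug/ml Hoechst), then counted on 4× images. Relative viability is the nuclei count in treated wells divided by that in vehicle wells. Values are medians of duplicate plates.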

[1] = compound: O=C(CCCCCCNC(=O)c1cnc(N(c2ccccc2)c2ccccc2)nc1)NO [Ricolinostat] + C[C@@H](Oc1cc(-c2cnn(C3CCNCC3)c2)cnc1N)c1c(Cl)ccc(F)c1Cl [Crizotinib] (partner 1 µM)
Outline: as §1

[2] = compound: O=C(CCCCCCNC(=O)c1cnc(N(c2ccccc2)c2ccccc2)nc1)NO [Ricolinostat] + Nc1nc2[nH]cc(CCc3ccc(C(=O)N[C@@H](CCC(=O)O)C(=O)O)cc3)c2c(=O)[nH]1 [Pemetrexed] (partner 0.2 µM)
Outline: as §1

[3] = compound: O=C(CCCCCCNC(=O)c1cnc(N(c2ccccc2)c2ccccc2)nc1)NO [Ricolinostat] + CCNC(=O)c1noc(-c2cc(C(C)C)c(O)cc2O)c1-c1ccc(CN2CCOCC2)cc1 [Luminespib] (partner 0.01 µM)
Outline: as §1

Row | Cell Line | relative viability (TGX 221 + Crizotinib; first compound 0.08 µM) | relative viability (TGX 221 + Crizotinib; first compound 0.253 µM) | relative viability (TGX 221 + Crizotinib; first compound 0.8 µM) | relative viability (TGX 221 + Crizotinib; first compound 2.53 µM) | relative viability (TGX 221 + Crizotinib; first compound 8 µM) | relative viability ([1]; first compound 0.08 µM) | relative viability ([1]; first compound 0.253 µM) | relative viability ([1]; first compound 0.8 µM) | relative viability ([1]; first compound 2.53 µM) | relative viability ([2]; first compound 0.08 µM) | relative viability ([2]; first compound 0.253 µM) | relative viability ([2]; first compound 0.8 µM) | relative viability ([2]; first compound 2.53 µM) | relative viability ([3]; first compound 0.08 µM) | relative viability ([3]; first compound 0.253 µM) | relative viability ([3]; first compound 0.8 µM) | relative viability ([3]; first compound 2.53 µM)
1 | BEN | 0.931 | 0.641 | 0.821 | 0.795 | 0.721 | 0.745 | 0.789 | 0.903 | 0.68 | 0.589 | 0.88 | 0.667 | 0.518 | 0.228 | 0.371 | 0.402 | 0.326
2 | RERF-LC-KJ | 0.736 | 0.832 | 0.752 | 0.781 | 0.795 | 0.784 | 0.754 | 0.819 | 0.65 | 0.492 | 0.427 | 0.447 | 0.374 | 1.31 | 1.07 | 1.16 | 0.809
3 | UMC-11 | 0.66 | 0.559 | 0.557 | 0.591 | 0.661 | 0.544 | 0.627 | 0.561 | 0.218 | 0.751 | 0.767 | 0.728 | 0.374 | 0.985 | 1.02 | 0.964 | 0.684
4 | HOP-62 | 0.893 | 0.873 | 0.992 | 0.953 | 0.88 | 0.912 | 0.855 | 0.924 | 0.87 | 0.304 | 0.28 | 0.337 | 0.319 | 0.84 | 0.857 | 0.884 | 0.747
5 | NCI-H2023 | 0.594 | 0.532 | 0.689 | 0.591 | 0.463 | 0.567 | 0.715 | 0.605 | 0.508 | 0.196 | 0.192 | 0.208 | 0.163 | 0.761 | 0.434 | 0.752 | 0.665
6 | NCI-H596 | 0.993 | 1.04 | 1 | 0.823 | 0.82 | 0.967 | 0.963 | 0.977 | 0.959 | 0.511 | 0.527 | 0.504 | 0.52 | 1.12 | 0.83 | 0.881 | 1.1
7 | LOU-NH91 | 0.796 | 0.75 | 0.746 | 0.735 | 0.655 |  | 0.738 | 0.734 | 0.783 |  | 0.327 | 0.378 | 0.367 | 0.322 | 0.371 | 0.347 | 0.313
8 | COR-L23 | 0.597 | 0.523 | 0.727 | 0.597 | 0.619 | 0.506 | 0.545 | 0.571 | 0.277 | 0.199 | 0.212 | 0.188 | 0.17 | 0.518 | 0.571 | 0.661 | 0.427
9 | EPLC-272H | 0.827 | 0.57 | 0.833 |  | 0.72 |  | 0.936 | 0.82 | 0.622 | 0.448 | 0.365 | 0.334 | 0.297 | 0.159 | 0.266 | 0.292 | 0.161
10 | H3255 | 0.745 | 0.812 | 0.881 | 0.848 | 0.575 | 0.822 | 0.823 | 0.804 | 0.749 | 0.494 | 0.544 | 0.553 | 0.557 | 0.534 | 0.881 | 0.833 | 0.704
11 | NCI-H650 | 0.729 | 0.655 | 0.624 | 0.689 | 0.534 |  | 0.811 | 0.529 | 0.63 | 0.643 | 0.912 | 0.861 | 0.734 | 0.763 | 0.758 | 0.788 | 0.657
12 | NCI-H1944 | 1.07 | 1.03 | 1.02 | 1.09 | 0.863 | 1.02 | 0.95 | 0.878 | 0.58 | 0.565 | 0.588 | 0.565 | 0.39 | 0.663 | 0.686 | 0.629 | 0.57
13 | NCI-H23 | 0.58 | 0.391 | 0.518 | 0.465 | 0.454 | 0.534 | 0.565 | 0.665 | 0.445 | 0.562 | 0.642 | 0.684 | 0.737 |  | 0.203 | 0.214 | 0.169
14 | NCI-H358 | 0.556 | 0.535 | 0.661 | 0.633 | 0.395 | 0.581 | 0.453 | 0.421 | 0.31 | 0.179 | 0.194 | 0.183 | 0.156 |  | 0.269 | 0.482 | 0.254
15 | NCI-H2405 | 0.792 | 0.834 | 0.769 | 0.757 | 0.671 | 0.735 | 0.804 | 0.838 | 0.876 | 0.916 | 1.04 | 1.06 | 1.12 | 0.615 | 0.929 | 0.69 | 0.874
16 | NCI-H441 | 0.732 | 0.82 | 0.657 | 0.62 | 0.697 | 0.587 | 0.625 | 0.615 | 0.633 | 0.267 | 0.25 | 0.289 | 0.272 |  | 0.376 | 0.328 | 0.373
17 | NCI-H322M | 0.945 | 1.03 | 0.95 | 0.823 | 0.911 |  | 0.913 | 0.818 | 0.751 | 0.61 | 0.607 | 0.639 | 0.646 |  | 0.974 | 0.988 | 1.09
